Key:
[1] = system: human prostate carcinoma cell line LNCa; experiment: Rare sugar uptake experiment, sugar content in disrupted cell suspension of LNCa; type: cell-based
Protocol: (§1) An uptake amount of a rare sugar, which had been added to a medium, into carcinoma cells was analyzed using the cell lines of three types of cancers. As the rare sugar, four kinds, that is, D-allose, D-allulose (D-psicose), L-allulose (L-psicose), and allitol were used, while D-glucose and fructose were used as a monosaccharide which was not a rare sugar.
(§2) Cells of each of the cell lines were cultured in RPMI-1640 media and during culturing, six sugars were each added to the resulting media and cultured. After culturing, an amount of each sugar taken up into the cells was analyzed. The medium to which no sugar was added during culturing was used as a control.
Used were human bladder carcinoma cell lines (RT112, 253), and J82), human prostatic carcinoma cell lines (LNCa, Du145, and PC-3), and human renal cell carcinoma cell lines (ACHN, Caki-I, and Caki-II).
After cells were cultured in RPMI-1640 (2000 mg D-glucose/L) media, the above monosaccharides and rare sugars were added to the resulting media, respectively. Described specifically, they were following seven combinations: RPMI-1640 alone (control), RPMI-1640+D-glucose, RPMI-1640+L-allulose, RPMI-1640+D-allulose, RPMI-1640+D-fructose, RPMI-1640+D-allose, and RPMI-1640+D-allitol. The final concentration of the sugar in the medium was adjusted to 10 mM and no sugar was added in the control.
Five-ml portions of a 3.0×10^4 cells/ml cell suspension prepared using RPMI-1640 were seeded in dishes having a diameter of 6 cm (1.5×10^5 cells/dish) and cultured for 24 hours in the RPMI-1640 medium containing 2000 mg/l of D-glucose as a nutrient source. Twenty-four hours later, the media were changed to the culture solutions containing the monosaccharides and rare sugars described above in 2), respectively, followed by culturing for 48 hours.
After culturing for 48 hours, the attached human carcinoma cells were mechanically separated and collected in a Spitz tube together with the culture solution and floating cells. After the supernatant formed by centrifugation (4° C., 1200 rpm, and 5 minutes) was removed to obtain cell pellets alone, 5 ml of a phosphate buffer physiological saline (PBS) was added for the purpose of washing to obtain a cell suspension of the cell pellets. A gain, the resulting cell suspension was centrifuged at 4° C. and 1200 rpm for 5 minutes and the supernatant was removed. To the cell pellets after washing was added 1 ml of pure water to suspend them therein. Ultrasonic disruption (intensity: 40%, 30 seconds) was then performed and the monosaccharide in the disrupted cell suspension was labeled with ABEE, followed by analysis by HPLC. From the area thus obtained, the sugar content in the cells was determined using a calibration curve. With respect to the ketose, two peaks were found after labeling with ABEE so that the sugar content in the cells was determined from the calibration curves of both peaks.

[2] = system: human carcinoma cell lines; type: cell-based; conditions: 48 h, 10 mM
Protocol: as §1, §2
Used were human bladder carcinoma cell lines (RT112, 253), and J82), human prostatic carcinoma cell lines (LNCa, Du145, and PC-3), and human renal cell carcinoma cell lines (ACHN, Caki-I, and Caki-II). […]
After culturing for 48 hours, the attached human carcinoma cells were mechanically separated and collected in a Spitz tube together with the culture solution and floating cells. […] From the area thus obtained, the sugar content in the cells was determined using a calibration curve. With respect to the ketose, two peaks were found after labeling with ABEE so that the sugar content in the cells was determined from the calibration curves of both peaks.

ACHN tumor = experiment: D-allose concentration in tumor after intraperitoneal injection, ACHN xenograft mouse model; type: in vivo; conditions: ACHN xenograft mice, 400 mg/kg intraperitoneal
Protocol: The experiment of the present example used two human renal cell carcinoma cell lines (Caki-I and ACHN). Each cell was cultured under the wet environment of 37° C. and 5% CO2 by using a RPMI-1640 culture solution (2000 mg D-glucose/L) containing a 10% fetal calf serum, a HEPES buffer, and penicillin-streptomycin.
With respect to a renal cell carcinoma xenograft mouse model, a 1.0×10^5 cells/ml of a cell suspension was obtained by adjusting the cultured cells with a MEM culture solution and then 0.1 ml of the resulting suspension was injected into the femoral subcutaneous tissue of Female athymic nude mice (BALB/c-nu/nu, 6-week-old). After checking that the tumor volume was 200 mm^3 or more one week after the injection, the mice were provided for the experiment thereafter.
A 400 mg/kg/0.4 mL solution of rare sugar D-allose was prepared using physiological saline and was intraperitoneally injected into the xenograft mouse models of two human renal cell carcinoma cell lines (Caki-I and ACHN) through a 27 G needle. A tumor was enucleated from the mouse before […] administration and 1 hour, 2 hours, and 4 hours after the administration. […] A monosaccharide in the supernatant thus obtained was labeled with ABEE (4-aminobenzoic acid ethyl ester) and the quantitative analysis of D-allose was performed by HPLC (high performance liquid chromatography). […]

SMILES: O=C[C@H](O)[C@H](O)[C@H](O)[C@H](O)CO [D-allose]
- D-glucose content in cell ([1]; LNCa, named sugar added to RPMI-1640 at 10 mM, 48 hours, HPLC after ABEE labeling): 11.2 µg
- Content in cell of the added sugar ([1]; human, 48 h, 10 mM): 0.0 µg
- Uptake into the cells [2]: found only in one (PC-3) of three human prostate carcinoma cell lines
- D-allose in tumor one hour after intraperitoneal injection (ACHN tumor; HPLC, FIG. 4): detected
- Time after injection at which D-allose concentration in tumor became the highest (ACHN tumor; sampled 1, 2, 4 hours): two
